Measured values reported in paper PMC7347136 (PLoS ONE, 2020).
Where two headings read alike, the source gives them in different places.

How the values were obtained:
[1] = system: THP-1; assay: Resazurin reduction cell viability assay; format: cell-based, human; conditions: Homo sapiens, THP-1, 72 h, THP-1; value the 7 x 7 combination matrix spans; 72 h; read-out: IC50 value of each compound (single agent)
Experimental: (§1) Solid tumor cell lines were seeded in 100 μl medium into 96-well plates at an appropriate cell number determined by a cell dilution assay (Cal51–2000 cells/well; Colo205, MCF10A and 184A1–3000 cells/well and MDA-MB-468, HCC1954–4000 cells/well). AML suspension cells were seeded in 96-well plates at approximately 3000 cells per well. Cells were incubated overnight at 37°C, 5% CO2. The following day, 100 μl fresh medium containing increasing concentrations of appropriate compound was added and the cells were incubated for up to 72 h at 37°C, 5% CO2. For pulse treatment of solid (adherent) tumor cell lines, medium was aspirated and replaced with fresh drug-free medium. For pulse treatment of suspension lines, plates were centrifuged at 478 xg for 5 min at the end of the incubation period with compound, medium containing compound was carefully aspirated and replaced with fresh compound-free medium. A total of 72 h after the start of treatment, 20 μl of a 10X stock of resazurin sodium salt (Sigma-Aldrich, Dorset, UK) prepared in medium was added to the cells and incubated for up to 3 h. […] was measured on the Wallac Victor plate reader (Cambridge, UK) at 544–595 nm. IC50/70/90 calculations were determined in XLFit.

[2] = system: Colo205; assay: Resazurin reduction cell viability assay; format: cell-based, human; conditions: 72 h continuous treatment, read-out: Colo205 IC50 ± SD
Experimental: as §1

[3] = system: subcutaneous EOL-1 tumors; assay: EOL-1 human eosinophilic leukemia xenograft model; format: in vivo, SCID mice
Experimental: Female athymic CB-17 SCID (Harlan Sprague-Dawley) mice between 6–7 weeks of age weighing approximately 22 grams were housed in a 12-h light-dark cycle at 70–74°F (21–23°C) and 40–60% humidity. Animals were fed water ad libitum (reverse osmosis, 2 ppm Cl2) and an irradiated standard rodent diet (Teklad 2919) consisting of 19% protein, 9% fat, and 4% fiber. Mice were injected subcutaneously into the right flank with 1x10^7 EOL-1 cells in 100 μl of a 1:1 HBSS:Matrigel solution. When tumors reached approximately 125–250 mm^3, animals were matched by tumor volume and then randomized into treatment and control groups before dosing was initiated. […] Cytarabine, also known as cytosine arabinoside (AraC), was administered by daily ip injection for 5 days only. Agent toxicity was assessed by effects on body weight and clinical signs. Animals were weighed twice weekly using a digital scale (Ohaus SP601). Beginning on Day 0, tumor dimensions were measured twice weekly by digital caliper (Fowler Ultra-Cal IV); tumor volume was calculated using the formula TV = width^2 x length x 0.52. […] Statistical differences in tumor volume were determined using a two-tailed One-Way Analysis of Variance (ANOVA) followed by the Dunnett’s multiple comparisons test comparing treated groups with control. For animal welfare the following methods were used: (a) methods of sacrifice: isoflurane anesthesia followed by cervical dislocation; (b) methods of anesthesia and/or analgesia: isoflurane anesthesia and (c) efforts to alleviate suffering: carprofen if animal veterinarian decides necessary or euthanasia.

`CC1(C)CCC(CN2CCN(c3ccc(C(=O)NS(=O)(=O)c4ccc(NCC5CCOCC5)c([N+](=O)[O-])c4)c(Oc4cnc5[nH]ccc5c4)c3)CC2)=C(c2ccc(Cl)cc2)C1` [ABT-199, reference compound] was tested. Which IC50 [1] did it give?
The IC50 was 60 nM.

Which IC50 [1] does the source give for `CC1(C)CCC(c2ccc(Cl)cc2)=C(CN2CCN(c3ccc(C(=O)NS(=O)(=O)c4ccc(N[C@H](CCN5CCOCC5)CSc5ccccc5)c(S(=O)(=O)C(F)(F)F)c4)cc3)CC2)C1` [ABT-263, reference compound] here?
Its IC50 is 270 nM.

For `CN(C)CC[C@H](CSc1ccccc1)Nc1ccc(S(=O)(=O)NC(=O)c2ccc(N3CCN(Cc4ccccc4-c4ccc(Cl)cc4)CC3)cc2)cc1[N+](=O)[O-]` [ABT-737, reference compound], which IC50 [1] is on record?
The IC50 was 430 nM.

Which results are given for `CN1CC[C@H](c2c(O)cc(O)c3c(=O)cc(-c4ccccc4Cl)oc23)[C@H](O)C1` [Alvocidib (flavopiridol), reference compound]?
IC50 [2]: 130 ± 20 nM; IC50 ([2]; Homo sapiens, COLO 205, 72 h): 129 nM

Which IC50 ([2]; Homo sapiens, COLO 205, 72 h) does the source give for `CC[C@H](Nc1nc(NCc2cccnc2)c2ncn(C(C)C)c2n1)[C@@H](C)O` [CCT068127] here?
The IC50 was 820 nM.

Which “transient body weight loss” value ([3]; 100 mg/kg i.p.) does the source give for `Nc1ccn([C@@H]2O[C@H](CO)[C@@H](O)[C@@H]2O)c(=O)n1` [cytarabine, cytosine arabinoside, reference compound] here?
Its value is 3%.

And the “tumor growth inhibition (TGI)” value ([3]; 100 mg/kg i.p. days 1-5, Day 19)?
Its value is 38%.

What about the “median TGI” value ([3]; 100 mg/kg i.p. days 1-5, day 9) of the same compound?
The value was 41%.
